From patent US20230339939A1 (Bayer Aktiengesellschaft, priority 2020, published 2023)
Like-named read-outs stand apart in the source and are kept apart here.

Columns and labels:
Format in all cases: biochemical
CSNK1A1 [1] = target: T1, CSNK1A1 (Homo sapiens (Human), UniProt P48729); assay: CSNK1A1 Assay 2 (ADP-Glo, 1 μM ATP, substrate biotin-Ahx-KRRRAL-pS-VASLPGL); details: median, read-out: CSNK1A1 Assay 2 IC50 [mol/l] (median)
Procedure: CSNK1A1-inhibitory activity of compounds of the present invention in presence of 1 μM adenosine-tri-phosphate (ATP) was quantified employing the CSNK1A1 assay as described in the following paragraphs. In essence, the enzyme activity is measured by quantification of the adenosine-di-phosphate (ADP), which is generated as a co-product of the enzyme reaction, via the “ADP-Glo™ Kinase Assay” kit from the company Promega. This detection system works as follows: In a first step the ATP not consumed in the kinase reaction is quantitatively converted to cAMP employing an adenylate cyclase (“ADP-Glo-reagent”), then the adenylate cyclase is stopped and the ADP generated in the kinase reaction converted to ATP which generates in a luciferase-based reaction a glow-luminescence signal (“Kinase Detection Reagent”).
(§1) Recombinant fusion protein of N-terminal Glutathion-S-Transferase (GST) and full-length human CSNK1A1, expressed by baculovirus infected insect cells and purified via Glutathion affinity chromatography, was purchased from Life Technologies (product no. PV4174) and used as enzyme. As substrate for the kinase reaction the biotinylated peptide biotin-Ahx-KRRRAL-pS-VASLPGL (C-terminus in amide form) was used which can be purchased e.g. from the company Biosyntan (Berlin-Buch, Germany).
For the assay 50 nl of a 100 fold concentrated solution of the test compound in DMSO was pipetted into a white 1536-well microtiter plate (Greiner Bio-One, Frickenhausen, Germany), 2 μL of a solution of CSNK1A1 in aqueous assay buffer [50 mM HEPES pH 7.5, 10% (v/v) glycerol, 10 mM MgCl2, 50 mM NaCl, 1 mM dithiothreitol, 0.01% (w/v) bovine serum albumin, 0.01% (v/v) Triton X-100] were added and the mixture was incubated for 15 min at 22° C. to allow pre-binding of the test compounds to the enzyme before the start of the kinase reaction. […] The concentration of CSNK1A1 was adjusted depending of the activity of the enzyme lot and was chosen appropriate to have the assay in the linear range, a typical concentrations are about 0.0375 ng/μL. The reaction was stopped by the addition of 2.5 μL of “ADP-Glo-reagent” (1:1.5 fold diluted with water) and the resulting mixture was incubated at 22° C. for 1 h to convert the ATP not consumed in the kinase reaction completely […]. Subsequently 2.5 μL of the “kinase detection reagent” (1.2 fold more concentrated than recommended by the producer) were added, the resulting mixture was incubated at 22° C. for 1 h and then the luminescence measured with a suitable measurement instrument (e.g. Viewlux™ from Perkin-Elmer). The amount of emitted light was taken as a measure for the amount of ADP generated and thereby for the activity of the CSNK1A1.

CSNK1A1 [2] = target: T1, CSNK1A1; assay: CSNK1A1 High ATP Assay (ADP-Glo, 1 mM ATP); details: median, read-out: CSNK1A1 high ATP assay IC50 [mol/l] (median)
Procedure: CSNK1A1-inhibitory activity of compounds of the present invention in presence of 1 mM adenosine-tri-phosphate (ATP) was quantified employing the CSNK1A1-high-ATP-assay as described in the following paragraphs. In essence, the enzyme activity is measured by quantification of the adenosine-di-phosphate (ADP), which is generated as a co-product of the enzyme reaction, via the “ADP-Glo™ Kinase Assay” kit from the company Promega. This detection system works as follows: In a first step the ATP not consumed in the kinase reaction is quantitatively converted to cAMP employing an adenylate cyclase (“ADP-Glo-reagent”), then the adenylate cyclase is stopped and the ADP generated in the kinase reaction converted to ATP which generates in a luciferase-based reaction a glow-luminescence signal (“Kinase Detection Reagent”).
as §1
For the assay 50 nl of a 100 fold concentrated solution of the test compound in DMSO was pipetted into a white low volume 384-well microtiter plate (Greiner Bio-One, Frickenhausen, Germany), 2 μL of a solution of CSNK1A1 in aqueous assay buffer [50 mM HEPES pH 7.5, 10% (v/v) glycerol, 10 mM MgCl2, 50 mM NaCl, 1 mM dithiothreitol, 0.01% (w/v) bovine serum albumin, 0.01% (v/v) Triton X-100] were added and the mixture was incubated for 15 min at 22° C. to allow pre-binding of the test compounds to the enzyme before the start of the kinase reaction. […] The concentration of CSNK1A1 was adjusted depending of the activity of the enzyme lot and was chosen appropriate to have the assay in the linear range, a typical concentration is about 0.4 ng/μL. The reaction was stopped by the addition of 2.5 μL of “ADP-Glo-reagent” (1:1.5 fold diluted with water) and the resulting mixture was incubated at 22° C. for 1 h to convert the ATP not consumed in the kinase reaction completely […]. Subsequently 2.5 μL of the “kinase detection reagent” (1.2 fold more concentrated than recommended by the producer) were added, the resulting mixture was incubated at 22° C. for 1 h and then the luminescence measured with a suitable measurement instrument (e.g. Viewlux™ from Perkin-Elmer). The amount of emitted light was taken as a measure for the amount of ADP generated and thereby for the activity of the CSNK1A1.

CSNK1D = CSNK1D (Homo sapiens (Human), UniProt P48730); assay: CSNK1D Assay (ADP-Glo, 1 μM ATP); details: median, read-out: CSNK1D IC50 [mol/l] (median)
Sequence of CSNK1D (P48730 whole entry): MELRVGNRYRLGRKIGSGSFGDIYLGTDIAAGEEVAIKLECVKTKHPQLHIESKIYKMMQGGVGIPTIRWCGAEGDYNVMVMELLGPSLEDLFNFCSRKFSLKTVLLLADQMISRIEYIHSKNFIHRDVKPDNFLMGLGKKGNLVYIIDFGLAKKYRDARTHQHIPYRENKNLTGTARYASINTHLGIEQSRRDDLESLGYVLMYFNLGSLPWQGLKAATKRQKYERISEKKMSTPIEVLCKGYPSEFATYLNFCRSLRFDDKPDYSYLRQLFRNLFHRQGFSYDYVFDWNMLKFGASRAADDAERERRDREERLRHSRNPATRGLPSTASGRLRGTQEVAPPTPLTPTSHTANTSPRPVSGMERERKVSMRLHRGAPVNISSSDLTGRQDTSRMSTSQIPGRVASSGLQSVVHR
Procedure: CSNK1D-inhibitory activity of compounds of the present invention in presence of 1 μM adenosine-tri-phosphate (ATP) was quantified employing the CSNK1 D assay as described in the following paragraphs. In essence, the enzyme activity is measured by quantification of the adenosine-di-phosphate (ADP), which is generated as a co-product of the enzyme reaction, via the “ADP-Glo™ Kinase Assay” kit from the company Promega. This detection system works as follows: In a first step the ATP not consumed in the kinase reaction is quantitatively converted to cAMP employing an adenylate cyclase (“ADP-Glo-reagent”), then the adenylate cyclase is stopped and the ADP generated in the kinase reaction converted to ATP which generates in a luciferase-based reaction a glow-luminescence signal (“Kinase Detection Reagent”).
as §1, with “CSNK1D,” for “CSNK1A1,”, “PV3665)” for “PV4174)”, “Btn-Ahx-[…]” for “biotin-Ahx-KRRRAL-pS-VASLPGL”
For the assay 50 nl of a 100 fold concentrated solution of the test compound in DMSO was pipetted into a white 1536-well microtiter plate (Greiner Bio-One, Frickenhausen, Germany), 2 μL of a solution of CSNK1D in aqueous assay buffer [50 mM HEPES pH 7.5, 10% (v/v) glycerol, 10 mM MgCl2, 50 mM NaCl, 1 mM dithiothreitol, 0.01% (w/v) bovine serum albumin, 0.01% (v/v) Triton X-100] were added and the mixture was incubated for 15 min at 22° C. to allow pre-binding of the test compounds to the enzyme before the start of the kinase reaction. […] The concentration of CSNK1D was adjusted depending of the activity of the enzyme lot and was chosen appropriate to have the assay in the linear range, a typical concentration is about 0.5 ng/μL. The reaction was stopped by the addition of 2.5 μL of “ADP-Glo-reagent” (1:1.5 fold diluted with water) and the resulting mixture was incubated at 22° C. for 1 h to convert the ATP not consumed in the kinase reaction completely […]. Subsequently 2.5 μL of the “kinase detection reagent” (1.2 fold more concentrated than recommended by the producer) were added, the resulting mixture was incubated at 22° C. for 1 h and then the luminescence measured with a suitable measurement instrument (e.g. Viewlux™ from Perkin-Elmer). The amount of emitted light was taken as a measure for the amount of ADP generated and thereby for the activity of the CSNK1D.

[3] = target: wild-type Epidermal Growth Factor Receptor (EGFR) (Homo sapiens (Human), UniProt P00533); assay: WT-EGFR Kinase Assay (TR-FRET, 2 mM ATP)
Sequence of wild-type Epidermal Growth Factor Receptor (EGFR) (P00533 669-1210): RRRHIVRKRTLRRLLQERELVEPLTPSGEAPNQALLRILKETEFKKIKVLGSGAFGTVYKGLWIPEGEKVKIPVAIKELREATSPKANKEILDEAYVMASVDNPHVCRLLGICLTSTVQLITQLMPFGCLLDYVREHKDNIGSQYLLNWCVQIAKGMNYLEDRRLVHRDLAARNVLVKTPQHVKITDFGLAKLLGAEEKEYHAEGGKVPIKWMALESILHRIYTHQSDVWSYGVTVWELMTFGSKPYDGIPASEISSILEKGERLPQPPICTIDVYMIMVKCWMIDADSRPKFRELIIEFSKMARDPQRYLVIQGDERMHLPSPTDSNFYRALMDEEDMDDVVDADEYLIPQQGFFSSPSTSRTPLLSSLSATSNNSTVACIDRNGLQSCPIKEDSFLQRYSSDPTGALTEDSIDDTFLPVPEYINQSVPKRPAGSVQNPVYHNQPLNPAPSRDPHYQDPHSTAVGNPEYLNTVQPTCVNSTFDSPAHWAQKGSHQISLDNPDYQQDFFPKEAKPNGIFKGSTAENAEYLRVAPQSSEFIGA
From the text: Inhibitory activity of compounds of the present invention against wild-type Epidermal Growth Factor Receptor (EGFR) was quantified employing the TR-FRET based EGFR assay as described in the following paragraphs.
Recombinant fusion protein of N-terminal Glutathion-S-Transferase (GST) and a fragment of human EGFR (amino acids R669 to A1210), expressed in Sf9 insect cells and purified via affinity chromatography using Glutathion Sepharose as described above, was used as kinase. As substrate for the kinase reaction the biotinylated peptide biotin-Ahx-[…] (C-terminus in amide form) was used which can be purchased e.g. form the company Biosynthan GmbH (Berlin-Buch, Germany).
For the assay 50 nl of a 100 fold concentrated solution of the test compound in DMSO was pipetted into either a black low volume 384 well microtiter plate or a black 1536 well microtiter plate (both Greiner Bio-One, Frickenhausen, Germany), 2 μL of a solution of EGFR in aqueous assay buffer [50 mM Hepes pH 7.0, 10 mM MgCl2, 1 mM dithiothreitol, 0.5 mM EGTA, 0.3 mM activated sodium ortho-vanadate, 0.005% (w/v) bovine serum albumin, 0.005% (v/v) Tween-20] were added and the mixture was incubated for 15 min at 22° C. to allow pre-binding of the test compounds to the enzyme before the start of the kinase reaction. […] The concentration of EGFR was adjusted depending of the activity of the enzyme lot and was chosen appropriate to have the assay in the linear range, typical concentration was 7.6 pg/μL. The reaction was stopped by the addition of 3 μL of a solution of HTRF detection reagents (83.3 nM streptavidine-XL665 [Cisbio Bioassays, Codolet, France] and 1.67 nM PT66-Tb-Cryptate, a terbium-cryptate labelled anti-phospho-tyrosine antibody from Cisbio Bioassays [instead of the PT66-Tb-cryptate PT66-Eu-Chelate from Perkin Elmer can also be used]) in an aqueous EDTA-solution (133.3 mM EDTA, 0.2% (w/v) bovine serum albumin in 50 mM HEPES pH 7.5).
The resulting mixture was incubated 1 h at 22° C. to allow the binding of the biotinylated phosphorylated peptide to the streptavidine-XL665 and the PT66-Tb-Cryptate. Subsequently the amount of phosphorylated substrate was evaluated by measurement of the resonance energy transfer from the PT66-Tb-Cryptate to the streptavidine-XL665. Therefore, the fluorescence emissions at 620 nm and 665 nm after excitation at 337 nm were measured in a HTRF reader, e.g. a Pherastar (BMG Labtechnologies, Offenburg, Germany) or a Viewlux (Perkin-Elmer). The ratio of the emissions at 665 nm and at 622 nm was taken as the measure for the amount of phosphorylated substrate.

[4] = read-out: EGFR Wildtype 2 mM ATP IC50 [mol/l] (median)

T1 sequence (P48729 whole entry): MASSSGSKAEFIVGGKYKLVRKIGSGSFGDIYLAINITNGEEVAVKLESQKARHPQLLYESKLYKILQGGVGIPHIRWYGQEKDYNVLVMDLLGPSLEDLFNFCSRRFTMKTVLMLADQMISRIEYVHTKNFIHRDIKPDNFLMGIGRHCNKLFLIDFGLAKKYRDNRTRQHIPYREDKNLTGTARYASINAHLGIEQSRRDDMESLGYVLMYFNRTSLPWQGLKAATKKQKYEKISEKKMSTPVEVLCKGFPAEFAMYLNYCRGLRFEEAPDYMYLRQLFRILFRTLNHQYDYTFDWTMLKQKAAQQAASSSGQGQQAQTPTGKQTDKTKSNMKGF

SMILES	IC50 (CSNK1A1 [1]) [nM]	IC50 (CSNK1A1 [2]) [nM]	IC50 (CSNK1D) [nM]	IC50 [3, 4] [nM]	IC50 ([3]; median) [nM]
O=C(Cc1ccc(F)cc1)Nc1cc(-c2[nH]c3ccc(F)nc3c2-c2ccc(F)cn2)ccn1 [Example 50, N-{4-[5-fluoro-3-(5-fluoropyridin-2-yl)-1H-pyrrolo[3,2-b]pyridin-2-yl]pyridin-2-yl}-2-(4-fluorophenyl)acetamide]	1.42	41.6	3.15	–	–
CC(C(=O)Nc1cc(-c2[nH]c3cccnc3c2-c2ccccc2)ccn1)c1ccc(F)cc1 (single isomer, unassigned; (+)) [Example 13, (+)-2-(4-fluorophenyl)-N-[4-(3-phenyl-1H-pyrrolo[3,2-b]pyridin-2-yl)pyridin-2-yl]propanamide]	1.66	91.6	–	> 20000	–
CC(C(=O)Nc1cc(-c2[nH]c3ccc(F)nc3c2-c2ccc(F)cn2)ccn1)c1ccc(F)cc1 (single isomer, unassigned; (-)) [Example 49, (−)-N-{4-[5-fluoro-3-(5-fluoropyridin-2-yl)-1H-pyrrolo[3,2-b]pyridin-2-yl]pyridin-2-yl}-2-(4-fluorophenyl)propanamide]	34.5	2580	33.1	–	–
CC(C(=O)Nc1cc(-c2[nH]c3ccc(F)nc3c2-c2ccc(F)cn2)ccn1)c1ccc(F)cc1 (single isomer, unassigned; (+)) [Example 48, (+)-N-{4-[5-fluoro-3-(5-fluoropyridin-2-yl)-1H-pyrrolo[3,2-b]pyridin-2-yl]pyridin-2-yl}-2-(4-fluorophenyl)propanamide]	1.69	36.1	3.96	–	–
O=C(Cc1ccc(F)cc1)Nc1cc(-c2[nH]c3nccnc3c2-c2ccccc2)ccn1 [Example 18, 2-(4-fluorophenyl)-N-[4-(7-phenyl-5H-pyrrolo[2,3-b]pyrazin-6-yl)pyridin-2-yl]acetamide]	3.33	260	–	> 20000	–
CC(C(=O)Nc1cc(-c2[nH]c3cccnc3c2-c2ccccc2)ccn1)c1ccc(F)cc1 (single isomer, unassigned; (-)) [Example 12, (−)-2-(4-fluorophenyl)-N-[4-(3-phenyl-1H-pyrrolo[3,2-b]pyridin-2-yl)pyridin-2-yl]propanamide]	37	2510	–	–	> 20000
O=C(Cc1ccc(F)cc1)Nc1cc(-c2[nH]c3nccnc3c2-c2ccccn2)ccn1 [Example 19, 2-(4-fluorophenyl)-N-{4-[7-(pyridin-2-yl)-5H-pyrrolo[2,3-b]pyrazin-6-yl]pyridin-2-yl}acetamide]	1.02	33.1	–	> 20000	–
O=C(Cc1ccc(F)cc1)Nc1cc(-c2[nH]c3ccnnc3c2-c2ccccc2)ccn1 [Example 20, 2-(4-fluorophenyl)-N-[4-(7-phenyl-5H-pyrrolo[3,2-c]pyridazin-6-yl)pyridin-2-yl]acetamide]	1.3	77.9	–	> 20000	–
